Laboratory results: patent publication US6630583B1, “Antibiotics and methods of using the same” (priority 1998, dated 2003)
Entries after “also recorded” stand apart in the source; their conditions may differ.

Legend:
[1] = tested on: Orf W1 mutant; assay: Phenotypes of the mutants: lysis by penicillin, vancomycin, DOC; type: cell-based, S. pneumoniae
Protocol: (§1) Construction of mutations: Insertion duplication mutagenesis was carried out using PCR to generate gene fragments for homologous recombination proximal to the amino terminus of OrfW1, HK or RR as follows:
(§2) Phenotypes of the mutants: The mutants were assessed for various physiological functions characteristic of pneumococci. This included lysis by penicillin, vancomycin, and the detergent deoxycholate (DOC). Other capabilities tested included ability to undergo natural DNA transformation (Transform) and expression of the LytA protein as assessed by Western blot.

[2] = tested on: RR mutant; assay: as above; type: cell-based, S. pneumoniae
Protocol: as §1, §2

[3] = tested on: HK mutant; assay: as above; type: cell-based, S. pneumoniae
Protocol: as §1, §2

[4] = tested on: pneumococcus R6 in medium lacking lysine; assay: Phenotypic tolerance: lysis under starvation conditions; type: cell-based; conditions: for lysis response of non-growing bacteria: 10×MIC of penicillin and/or 0.5 mM peptide
From the text: When bacteria grow slowly or stop growing due to nutrient deprivation, they become tolerant to antibiotics of all classes. […] This prolongs the course of antibiotics needed to treat these infections. For instance, many weeks of therapy are required to treat endocarditis and osteomyelitis secondary to slowly growing bacteria. An in vitro example of phenotypic tolerance is shown in FIG. 10 where pneumococcus R6 has been transferred at time 0 to a medium lacking the essential amino acid lysine. Penicillin was added 5 min after the transfer. […] This same response is seen with the peptide having the amino acid sequence of SEQ ID NO:2.

[5] = tested on: pneumococcal strain R6; assay: Cell growth curves (OD 620 nm) and viability of R6 with peptide; type: cell-based, Streptococcus pneumoniae; conditions: for ability to inhibit R6 growth: peptides at 100 μM added to growing R6 at OD 620 nm of 0.1
Protocol: (§3) Cell growth curves were performed in the presence or absence of the test reagents as specified. In short, samples were prepared as follows: 1 ml of a pneumococcus culture was placed into 10 ml of prewarmed Semisynthetic (C+Y) medium. The optical density (OD) of the bacteria was monitored at 620 nm until an OD of approximately 0.1 was reached. At this point the test reagents were administered to the samples. The cells were cultured for up to 11 hours at 37° Celsius, and the OD at 620 nm was monitored every hour. A decrease in OD 620 is indicative of cell lysis, an increase is indicative of bacterial growth. No change in optical density indicates growth inhibition.
To characterize the antibacterial activity of the peptide, pneumococcal strain R6 which is sensitive to penicillin was exposed to 0.1 mM of the peptide having the amino acid sequence of SEQ ID NO:2 at an optical density of 0.01 (bacterial density of 3×10^6 cfu/ml). Bacterial growth as measured by optical density was followed for 11 hours and viability was assessed by plating on blood agar. […] Four hours after the start of the experiment, the control strain grew from 3×10^6 to 1.2×10^7 cfu/ml. In contrast, four hours after addition of the peptide, the viable bacterial number decreased from 3×10^6 to 3×10^4 CFU/ml (10^3-fold lower than the control).
The fact that the peptide is active in the range below 1 μg/ml places the potency of its antibacterial effect in the same range as conventional antibiotics.
R6 with no peptide was the control and underwent exponential growth. […] This enhanced activity may result from an improvement in folding of the peptide or greater access to the bacterial target.

[6] = tested on: loss of function mutants of the ABC transporter and RR/HK; assay: Tolerance of loss of function mutants; type: cell-based, S. pneumoniae; conditions: growth inhibitory concentrations
From the text: As described in Example 6, using insertion duplication mutagenesis, loss of function mutations were obtained in each of the 3 open reading frames of the ABC transporter and each of the two parts of the RR/HK. […] These parallel phenotypes further implicate these topographically close genes in a common pathway.
Vancomycin is the only antibiotic that maintains efficacy against many strains of highly antibiotic resistant bacteria, such as staphylococci, enterococci and pneumococci. Escape from antibiotic activity of vancomycin has been detected in rare staphylococci and enterococci but not in pneumococci as yet. […] Infect. Dis. J., 12:196-200 (1993); Marton et al., J. Infect. Dis., 163:542-8 (1991); and Bradley et al., Pediatr. Infect. Dis., 14:1037-1041 (1995)]. […] If they created a phenotype which was corrected by exogenous peptide, they may participate in the biological activity of the peptide. For instance, the ABC transporter may transport the peptide and the HK may serve as an extracellular receptor for the peptide which then changes the behavior of the bacteria (i.e., killing) via a RR signal.

[7] = tested on: HK mutant Van S; assay: Lysis of HK mutant; type: cell-based, pneumococcus; conditions: 10×MIC of penicillin and/or 0.5 mM peptide
Protocol: (§4) FIGS. 11A-11B show the effects of 10×MIC of penicillin and/or 0.5 mM of the peptide having the amino acid sequence of SEQ ID NO:2 on the lysis of clinical isolate F79 cells (FIG. 11A) and HK mutant VanS cells (FIG. 11B).
(§5) F79 is a natural isolate of pneumococcus with mutations in the HK and the ABC transporter genes as determined by SSCP (see Example 11).

[8] = tested on: clinical isolate A144; assay: Cell viability (CFU/ml) one hour after addition; type: cell-based, pneumococcus; conditions: 10×MIC of penicillin, 1×MIC of vancomycin or 0.4 mM peptide
From the text: (§6) Tolerance to penicillin occurs in bacteria that fail to trigger autolysins in response to the drug. […] This is a mechanism of resistance to these drugs and is a serious emerging medical problem. […] However, one pneumococcal strain that fails to lyse and dies slowly in response to both penicillin and vancomycin is the clinical isolate A144. This combination of traits makes A144 recalcitrant to therapy. FIG. 8 compares the activity of penicillin, vancomycin, and the peptide having the amino acid sequence of SEQ ID NO:2 against a classical sensitive strain, R6, and the tolerant strain A144. […] In contrast, strain A144 loses only 0.5 logs of viability in the same time period for all three therapies. […] Thereafter the bacteria grew more slowly than untreated controls.

[9] = tested on: clinical isolate F79; assay: Lysis of tolerant clinical isolate; type: cell-based, pneumococcus; conditions: 10×MIC of penicillin and/or 0.5 mM peptide
Protocol: as §4, §5

[10] = tested on: leucine deprived R6 cells; assay: Stringent response: lysis after leucine deprivation; type: cell-based, S. pneumoniae
Protocol: P27 and the stringent response mechanism: The stringent response is believed to prevent the death pathway. To clarify the relationship of the stringent response to P27 activity, protein synthesis of R6 was inhibited by leucine deprivation and the effect of P27 was monitored (FIG. 19). […] The minimum concentration of penicillin required to cause penicillin dependent autolysis was equal to its MIC ([…]).

[11] = tested on: mutant SPSJ01; assay: Screen of library of loss of function mutants for antibiotic tolerance; type: cell-based, pneumococcus
From the text: To detect genes that are part of the trigger pathway of the pneumococcal autolysin a library of loss of function mutants has been created, which was screened for antibiotic tolerance [Pearce et al., Mol. Microbiol., 9:1037-1050 (1993)]. […] It is reasonable to assume that this two component system represents the start of the pneumococcal autolytic trigger pathway, functioning as a relay station reacting to cell density signals or the binding of antibiotics to penicillin binding proteins. Similar to the enterococcal histidine kinase VanSB, the pneumococcal VncS works most likely as a kinase/phosphatase (see Example 1, above).

[12] = tested on: Lyt 4-4; assay: Loss of chain formation (morphology); type: cell-based, Streptococcus pneumoniae; conditions: Lyt 4-4, 0.5 mM peptide in the medium
From the text: Loss of chain formation is a measure of antibacterial activity independent of autolysin.
Strains of pneumococcus that are tolerant to penicillin, such as Lyt 4-4, grow in long chains as compared to the diplococcal morphology of wild type pneumococci. FIG. 6A illustrates these chains, which extend to 30-50 bacteria in length.
P27 is capable of triggering different autolytic pathways: To identify the relationship between P27 and the activation of the autolysin LytA, the bactericidal effect of the peptide on the pneumococcal mutant Lyt-4-4 (which is deficient in the major autolysin), was investigated. […] Compared to the diplococcal morphology of wild type pneumococci, pneumococci lacking an active autolysin grow in long chains.

[13] = tested on: clinical isolate A144; assay: Growth of the clinical isolate; type: cell-based, pneumococcus; conditions: 0.1 mM peptide added early in the growth cycle
From the text: as §6

[14] = tested on: autolysin deficient strain Lyt 4-4; assay: Growth and killing of autolysin deficient strain; type: cell-based, Streptococcus pneumoniae; conditions: Lyt 4-4, 0.1 mM peptide
Protocol: The addition of the additives were made at time “0” hours. The strain of bacteria cultured was the Lyt-4-4 strain of Streptococcus pneumoniae which harbors a mutation leading to the loss of LytA activity. The peptide having the amino acid sequence of SEQ ID NO:2 was added as indicated at a concentration of 0.1 mM. Lyt-4-4 lacks active autolysin LytA and is therefore tolerant to penicillin treatment.
as §3
This antibacterial effect was also demonstrable in bacteria mutated so as to prevent autolysis by point mutation in the autolysin, as in the autolysin deficient strain Lyt 4-4. […]

[15] = tested on: RR/HK mutants; assay: Antibacterial activity of the peptide in the mutants; type: cell-based, S. pneumoniae; conditions: peptide added exogenously
From the text: (§7) To test this hypothesis the ability of the peptide having the amino acid sequence of SEQ ID NO:2 to maintain antibacterial activity in the mutants was examined. […] Furthermore, bacteria which are tolerant by virtue of phenotypic tolerance due to slow growth rate or mutations in genes other than the RR/HK will be susceptible to the antibacterial effect of the peptide having the amino acid sequence of SEQ ID NO:2.

[16] = tested on: mutant in ORF W1; assay: as above; type: cell-based, S. pneumoniae; conditions: mutant in ORF W1, peptide added from the outside
From the text: as §7

CC1(C)S[C@@H]2[C@H](NC(=O)Cc3ccccc3)C(=O)N2[C@H]1C(=O)O [penicillin, benzylpenicillin] was tested, and the “Lysis by” value [1] was “tolerant”, the “Lysis by” value [2] was “sensitive” and the “Lysis by” value [3] was “tolerant”. For the same compound, the “viability of non-growing bacteria” value ([4]; 10×MIC of penicillin) was “unaffected”, the “lysis response of non-growing bacteria” value [4] was “only a minimal response” and the “time to lysis of R6” value ([5]; growing R6, penicillin at 10×MIC) was “within one hour”. The “tolerance (lysis and death)” value [6] was “failed to lyse and die”, the “lysis of Van S” value [7] was “tolerance” and the loss of viability [8] was 0.5 logs. The “lysis of F79” value [9] was “tolerant”, the “lysis of R6 under leucine deprivation” value ([10]; 10×MIC of penicillin or vancomycin, 0.2 mM P27, or combination) was “neither the addition of 10×the MIC of penicillin or vancomycin nor the addition of 0.2 mM P27 resulted in lysis” and the “minimum concentration of penicillin required to cause penicillin dependent autolysis” value ([10]; leucine deprived R6, in combination with P27) was 0.1 mg/mL. The “death in the presence of antibiotic” value [11] was “failed to die”.
In the case of “LADKRPARDYN (listed as Streptococcus pneumoniae) [Peptide 5]”, the “ability to inhibit R6 growth” value [5] is reported as “Exponential growth equal to untreated bacteria”.
For “MEFMRKEFHNVLSSGQLLADKRPARDYN (listed as Streptococcus pneumoniae) [SEQ ID NO:12]”, the “antibacterial activity against R6” value [5] was “no antibacterial activity”.
In the case of MRKEFHNVLSAGQLLADKRPARDYN [Peptide 3], the “ability to inhibit R6 growth” value [5] is reported as “greatly enhanced antibacterial effect”.
For “MRKEFHNVLSSGQL (listed as Streptococcus pneumoniae) [Peptide 4]”, the “ability to inhibit R6 growth” value [5] was “Exponential growth equal to untreated bacteria”.
MRKEFHNVLSSGQLLADKRPARDAN [Peptide 2] was tested, and the “ability to inhibit R6 growth” value [5] was “greatly decreased anti-bacterial activity”.
In the case of “MRKEFHNVLSSGQLLADKRPARDYN (listed as Streptococcus pneumoniae) [Peptide 1]”, the chain formation ([12]; listed as SEQ ID NO.2) is reported as “dissolution of the chains”, the chain formation ([12]; listed as SEQ ID NO:2) is reported as “reversion of the chains to diplococci” and the “lysis response of non-growing bacteria” value [4] is reported as “same response”. The “Bacterial growth as measured by optical density” value ([5]; R6, 0.1 mM peptide, followed for 11 hours) was “completely inhibited growth”, the “viable number, fold lower than the control” value ([5]; R6, 0.1 mM peptide, four hours) was 10^3 fold and the viable bacterial number ([5]; R6, 0.1 mM peptide, four hours after addition, start 3×10^6) was 3×10^4 CFU/ml. For the same compound, the lysis ([5]; R6, 0.1 mM peptide, listed as SEQ ID NO:2) was “without substantial cell lysis; also recorded: No lysis was detected”, the “minimum effective concentration (MEC)” value ([5]; R6, converted with molecular weight 2940) was 0.15 to 0.3 µg/mL and the minimum effective concentration ([5]; R6, optical density over 4 hours) was 50 to 100 nM. The “dose dependence of antibacterial activity” value ([5]; R6, various amounts of peptide, 4 hours) was “dose dependent antibacterial activity”, the “ability to inhibit R6 growth” value [5] was “significant delay in the onset of bacterial growth” and the “lysis of Van S” value [7] was “not responsive”. The “growth of strain A144” value [13] was “significantly inhibits the growth of strain A144 for 4 hours”, the loss of viability [8] was 0.5 logs and the bactericidal activity [14] was “demonstrable”. For the same compound, the growth inhibition [15] was “did not function to inhibit the growth” and the growth inhibition [16] was “not able to inhibit growth”.
With deoxycholate [DOC] the “Lysis by” value [1] was “no”, the “Lysis by” value [2] was “yes” and the “Lysis by” value [3] was “yes”.
